The record followed here is ChEMBL document CHEMBL1133206, “Antifungal rapamycin analogues with reduced immunosuppressive activity” (Bioorg Med Chem Lett, 2000).

Values after ≈ are worked out from the molar mass of the structure shown. Some results are limits rather than exact numbers.

One assay deals with Aspergillus niger. In words: In vitro antifungal activity at a minimum inhibitory concentration (~100 ug/mL) against Aspergillus niger; Not affected. Type of assay: functional.
The test system of assay [1] is Candida albicans. In words: In vitro antifungal activity against Candida albicans (CA 10231). Type of assay: functional.
Another assay concerns Pichia kudriavzevii. In words: In vitro antifungal activity against Candida krusei (CK 28838). The format is functional.
Assay [2] concerns Candida albicans. In words: In vitro antifungal activity against Candida albicans (CA 38247); Weak. Type of assay: functional, organism-based.
For assay [3], the system named is Candida albicans. In words: In vitro antifungal activity against Candida albicans (CA 442); Weak. The format is functional, organism-based.
In assay [4] the test system is Candida albicans. In words: In vitro for antifungal activity against Candida albicans (CA 579a). The format is functional.
The test system of assay [5] is Candida albicans. In words: In vitro antifungal activity against Candida albicans (CA 62376); Weak. The format is functional, organism-based.
The subject of assay [6] is Candida albicans. In words: In vitro antifungal activity against […] (CA 34140); Not affected. Type of assay: functional.
A further assay concerns Candida tropicalis. In words: In vitro antifungal activity against Candida tropicalis (CT 750). Type of assay: functional.
The next assay is filed under the species Homo sapiens. In words: Inhibitory activity against human concanavalin-A proliferation assay. The format is functional.
In the next assay the test system is Nakaseomyces glabratus. In words: In vitro antifungal activity against Torulopsis glabrata (TG 15545). Type of assay: functional.
Setting [7] is: Aspergillus niger, read-out: MIC.

As for `CO[C@@H]1C[C@H](C[C@@H](C)[C@@H]2CC(=O)[C@H](C)/C=C(\C)[C@@H](O)[C@@H](OC)C(=O)[C@H](C)C[C@H](C)/C=C/C=C/C=C(\C)[C@@H](N(OC)C(=O)N(C)C)C[C@@H]3CC[C@@H](C)[C@@](O)(O3)C(=O)C(=O)N3CCCC[C@H]3C(=O)O2)CC[C@H]1O`, the MIC – broadly, the lowest concentration that inhibits growth of the organism – with Aspergillus niger (setting [7]) is ~100 µg/mL (≈ 100 µM); in the assay with Candida albicans [1] it was > 100 µg/mL; in the assay with Pichia kudriavzevii, 3.12 µg/mL (≈ 3.12 µM); in the assay with Candida albicans [2], “Weak”; in the assay on Candida albicans [3] it was “Weak”; against Candida albicans [4], > 100 µg/mL. Besides, the MIC entry in the assay on Candida albicans [5] is “Weak”; with Candida albicans [6], ~100 µg/mL (≈ 100 µM); in the assay on Candida tropicalis, 50 µg/mL (≈ 50 µM); in the assay on Nakaseomyces glabratus, 3.12 µg/mL (≈ 3.12 µM). For the same compound, half-maximal inhibition in the assay listed under Homo sapiens (IC50) was put at 3610 nM.
Regarding `CCCOC(=O)N(O)[C@@H]1C[C@@H]2CC[C@@H](C)[C@@](O)(O2)C(=O)C(=O)N2CCCC[C@H]2C(=O)O[C@H]([C@H](C)C[C@@H]2CC[C@@H](O)[C@H](OC)C2)CC(=O)[C@H](C)/C=C(\C)[C@@H](O)[C@@H](OC)C(=O)[C@H](C)C[C@H](C)/C=C/C=C/C=C/1C`, the MIC in the assay on Aspergillus niger (setting [7]) was ~100 µg/mL (≈ 99.9 µM); in the assay with Candida albicans [1], 1.56 µg/mL (≈ 1.56 µM); in the assay on Pichia kudriavzevii, 0.78 µg/mL (≈ 0.779 µM); in the assay with Candida albicans [2], “Weak”; in the assay with Candida albicans [3] it was “Weak”; in the assay with Candida albicans [4] it was 3.12 µg/mL (≈ 3.12 µM). Also, the MIC result was “Weak” in the assay with Candida albicans [5], ~100 µg/mL (≈ 99.9 µM) with Candida albicans [6], 1.56 µg/mL (≈ 1.56 µM) with Candida tropicalis and 1.56 µg/mL (≈ 1.56 µM) in the assay with Nakaseomyces glabratus. For the same compound, it took 288 nM to reach half-maximal inhibition in the assay filed under Homo sapiens (IC50).
On to `CO[C@@H]1C[C@H](C[C@@H](C)[C@@H]2CC(=O)[C@H](C)/C=C(\C)[C@@H](O)[C@@H](OC)C(=O)[C@H](C)C[C@H](C)/C=C/C=C/C=C(\C)[C@H](N(OC)C(=O)N(C)C)C[C@@H]3CC[C@@H](C)[C@@](O)(O3)C(=O)C(=O)N3CCCC[C@H]3C(=O)O2)CC[C@H]1O`, for which the MIC with Aspergillus niger (setting [7]) is ~100 µg/mL (≈ 100 µM); with Candida albicans [1] it was 50 µg/mL (≈ 50 µM); with Pichia kudriavzevii, 1.56 µg/mL (≈ 1.56 µM); in the assay on Candida albicans [2], “Weak”; with Candida albicans [3] it was “Weak”; with Candida albicans [4] it was 50 µg/mL (≈ 50 µM). Moreover, the MIC result in the assay on Candida albicans [5] is “Weak”; in the assay on Candida albicans [6], ~100 µg/mL (≈ 100 µM); in the assay with Candida tropicalis it was 50 µg/mL (≈ 50 µM); against Nakaseomyces glabratus it was 1.56 µg/mL (≈ 1.56 µM). Besides, the IC50 (in general, the concentration needed to halve the response being measured) in the assay filed under Homo sapiens is 6.5 nM.
In the case of `CO[C@@H]1C[C@H](C[C@@H](C)[C@@H]2CC(=O)[C@H](C)/C=C(\C)[C@@H](O)[C@@H](OC)C(=O)[C@H](C)C[C@H](C)/C=C/C=C/C=C(\C)[C@H](N(O)C(N)=O)C[C@@H]3CC[C@@H](C)[C@@](O)(O3)C(=O)C(=O)N3CCCC[C@H]3C(=O)O2)CC[C@H]1O`, the MIC against Aspergillus niger was ~100 µg/mL (≈ 104 µM); with Aspergillus niger (setting [7]), ~100 µg/mL (≈ 104 µM); against Candida albicans [1] it was 12.5 µg/mL (≈ 13 µM); in the assay with Pichia kudriavzevii, 3.12 µg/mL (≈ 3.26 µM); with Candida albicans [2], “Weak”; with Candida albicans [3], “Weak”. Besides, the MIC with Candida albicans [4] was 25 µg/mL (≈ 26.1 µM); in the assay with Candida albicans [5], “Weak”; against Candida albicans [6] it was ~100 µg/mL (≈ 104 µM); against Candida tropicalis, 3.12 µg/mL (≈ 3.26 µM); in the assay on Nakaseomyces glabratus it was 1.56 µg/mL (≈ 1.63 µM). This compound registered an IC50 in the assay filed under Homo sapiens of 379 nM.
Consider `CO[C@@H]1C[C@H](C[C@@H](C)[C@@H]2CC(=O)[C@H](C)/C=C(\C)[C@@H](O)[C@@H](OC)C(=O)[C@H](C)C[C@H](C)/C=C/C=C/C=C(\C)[C@@H](N(O)C(N)=O)C[C@@H]3CC[C@@H](C)[C@@](O)(O3)C(=O)C(=O)N3CCCC[C@H]3C(=O)O2)CC[C@H]1O`, for which the MIC was ~100 µg/mL (≈ 104 µM) with Aspergillus niger (setting [7]); 100 µg/mL (≈ 104 µM) in the assay on Candida albicans [1]; 3.12 µg/mL (≈ 3.26 µM) in the assay on Pichia kudriavzevii; “Weak” in the assay with Candida albicans [2]; “Weak” in the assay with Candida albicans [3]; 100 µg/mL (≈ 104 µM) against Candida albicans [4]. In addition, the MIC result in the assay on Candida albicans [5] was “Weak”; against Candida albicans [6], ~100 µg/mL (≈ 104 µM); in the assay on Candida tropicalis it was 12.5 µg/mL (≈ 13 µM); in the assay on Nakaseomyces glabratus, 1.56 µg/mL (≈ 1.63 µM). The compound further registered a 50% inhibitory concentration (IC50) in the assay listed under Homo sapiens of 758 nM.
As to `CCCCOC(=O)N(O)[C@@H]1C[C@@H]2CC[C@@H](C)[C@@](O)(O2)C(=O)C(=O)N2CCCC[C@H]2C(=O)O[C@H]([C@H](C)C[C@@H]2CC[C@@H](O)[C@H](OC)C2)CC(=O)[C@H](C)/C=C(\C)[C@@H](O)[C@@H](OC)C(=O)[C@H](C)C[C@H](C)/C=C/C=C/C=C/1C`, the MIC with Aspergillus niger (setting [7]) is ~100 µg/mL (≈ 98.5 µM); in the assay on Candida albicans [1] it was 1.56 µg/mL (≈ 1.54 µM); against Pichia kudriavzevii it was 0.78 µg/mL (≈ 0.768 µM); in the assay with Candida albicans [2], “Weak”; with Candida albicans [3], “Weak”; in the assay on Candida albicans [4], 1.56 µg/mL (≈ 1.54 µM). Further, the MIC result in the assay with Candida albicans [5] was “Weak”; in the assay with Candida albicans [6], ~100 µg/mL (≈ 98.5 µM); with Candida tropicalis, 1.56 µg/mL (≈ 1.54 µM); with Nakaseomyces glabratus, 0.78 µg/mL (≈ 0.768 µM). In addition, in the assay listed under Homo sapiens, the IC50 amounted to 83 nM.
Consider `CO[C@@H]1C[C@H](C[C@@H](C)[C@@H]2CC(=O)[C@H](C)/C=C(\C)[C@@H](O)[C@@H](OC)C(=O)[C@H](C)C[C@H](C)/C=C/C=C/C=C(\C)[C@@H](N(O)C(=O)OCC(C)C)C[C@@H]3CC[C@@H](C)[C@@](O)(O3)C(=O)C(=O)N3CCCC[C@H]3C(=O)O2)CC[C@H]1O`, for which the MIC with Aspergillus niger (setting [7]) is ~100 µg/mL (≈ 98.5 µM); in the assay on Candida albicans [1], 3.12 µg/mL (≈ 3.07 µM); with Pichia kudriavzevii, 0.78 µg/mL (≈ 0.768 µM); in the assay with Candida albicans [2] it was “Weak”; with Candida albicans [3], “Weak”; in the assay on Candida albicans [4], 12.5 µg/mL (≈ 12.3 µM). In addition, the MIC result is “Weak” in the assay on Candida albicans [5], ~100 µg/mL (≈ 98.5 µM) in the assay with Candida albicans [6], 3.12 µg/mL (≈ 3.07 µM) with Candida tropicalis and 0.78 µg/mL (≈ 0.768 µM) in the assay on Nakaseomyces glabratus. The IC50 in the assay filed under Homo sapiens came out at 760 nM.
Regarding `CCCCOC(=O)N(O)[C@H]1C[C@@H]2CC[C@@H](C)[C@@](O)(O2)C(=O)C(=O)N2CCCC[C@H]2C(=O)O[C@H]([C@H](C)C[C@@H]2CC[C@@H](O)[C@H](OC)C2)CC(=O)[C@H](C)/C=C(\C)[C@@H](O)[C@@H](OC)C(=O)[C@H](C)C[C@H](C)/C=C/C=C/C=C/1C`, the MIC in the assay with Aspergillus niger (setting [7]) was ~100 µg/mL (≈ 98.5 µM); in the assay on Candida albicans [1] it was 12.5 µg/mL (≈ 12.3 µM); in the assay with Pichia kudriavzevii it was 1.56 µg/mL (≈ 1.54 µM); with Candida albicans [2], “Weak”; with Candida albicans [3], “Weak”; in the assay on Candida albicans [4] it was 12.5 µg/mL (≈ 12.3 µM). In addition, the minimum inhibitory concentration (MIC) result is “Weak” in the assay on Candida albicans [5], ~100 µg/mL (≈ 98.5 µM) in the assay on Candida albicans [6], 12.5 µg/mL (≈ 12.3 µM) in the assay with Candida tropicalis and 1.56 µg/mL (≈ 1.54 µM) in the assay on Nakaseomyces glabratus. Besides, the IC50 in the assay filed under Homo sapiens worked out at 523 nM.
Turning to `CO[C@@H]1C[C@H](C[C@@H](C)[C@@H]2CC(=O)[C@H](C)/C=C(\C)[C@@H](O)[C@@H](OC)C(=O)[C@H](C)C[C@H](C)/C=C/C=C/C=C(\C)[C@@H](N(O)C(=O)OC(C)C)C[C@@H]3CC[C@@H](C)[C@@](O)(O3)C(=O)C(=O)N3CCCC[C@H]3C(=O)O2)CC[C@H]1O`, the minimum inhibitory concentration (MIC) is ~100 µg/mL (≈ 99.9 µM) in the assay on Aspergillus niger (setting [7]); 6.25 µg/mL (≈ 6.24 µM) with Candida albicans [1]; 0.78 µg/mL (≈ 0.779 µM) with Pichia kudriavzevii; “Weak” in the assay on Candida albicans [2]; “Weak” with Candida albicans [3]; 12.5 µg/mL (≈ 12.5 µM) in the assay on Candida albicans [4]. The MIC entry in the assay on Candida albicans [5] was “Weak”; with Candida albicans [6], ~100 µg/mL (≈ 99.9 µM); in the assay with Candida tropicalis, 25 µg/mL (≈ 25 µM); in the assay with Nakaseomyces glabratus, 0.78 µg/mL (≈ 0.779 µM). The same compound had an IC50 in the assay filed under Homo sapiens of 820 nM.
